No end group written: not given here.
Key:
NT-293T cells = type: cell-based, human
Streptavidin [1] = target: T1, Streptavidin (Streptomyces avidinii, UniProt P22629); assay: Streptavidin-APC staining of HEK 293T cells transfected with tag constructs, flow cytometry; type: cell-based; conditions: 48 hrs post-transfection
Method: A. Schematic diagram of the amino acid sequences of the six Streptavidin-binding tags on a CD8 stalk. These constructs co-express the green fluorescent protein (eGFP) via an internal ribosome entry sequence (IRES) downstream of the first open reading frames. B. The constructs were transfected into HEK 293T cells and stained with Streptavidin-APC 48 hours post-transfection and analysed by flow-cytometry. Binding of streptavidin (y-axis) is plotted against eGFP signal.
FIG. 3: Transfection of 293T cells with StreptagII, Flankedccstreptag and ccstretag epitopes in three different formats shown in FIG. 2. 293T cells were also transfected with an irrelevant protein (HA1-TCR beta) co-expressed with eGFP as a negative control. […] Tags were expressed on either a CD8 stalk, a GPI anchor (×1) with one open reading frame or with a GPI anchor (×2) with two copies of the open reading frame. 293T cells transfected with the tagging proteins were stained with Streptavidin APC. The cells were all analysed by flow-cytometry and Streptavidin APC binding (y-axis) is plotted against eGFP signal (x-axis).
An expression construct coding for a signal peptide attached to the amino terminal of theses tags was generated. In addition, the carboxy terminal of these peptide tags was attached to the CD8 stalk, CD8 transmembrane domain and a short part of the CD8 endodomain sufficient to anchor the protein to the membrane. To test their binding to streptavidin, HEK 293T cells were transfected with each construct individually and 48 hrs post-transfection cells were harvested and stained with Streptavidin conjugated to the fluorophore Allophycocyanin (APC) (FIG. 1B).
The optimal format to express these tags on the cell surface for streptavidin binding was then investigated. Additional plasmids were constructed where these tags are expressed on a GPI anchor with one copy of the tags' open reading frames and GPI anchor with two copies of the open reading frames separated by a CD8-based linker (the annotated amino acid sequences of these constructs are depicted in FIG. 2). The binding of these tags was compared with that of the original constructs where the epitopes were placed on a CD8 stalk.
To test their binding to Streptavidin, HEK 293T cells were transiently transfected with the constructs and stained 48 hrs post-transfection with Streptavidin-APC (FIG. 3).

K562 cells [2] = assay: Sorting of K562 cells expressing flankedccstreptag, RQR8, GST or H6 tags with their respective beads; type: cell-based; conditions: for eGFP positive cells in the flow-through fraction / eGFP positive cells in the sorted fraction: K562, respective beads, 12 days post sorting; for eGFP positive cells, pre-sorted population: retrovirally transduced K562 before sorting
Method: K562 cells were retrovirally transduced with the four constructs individually. Subsequently cell populations were sorted with their respective beads as per manufacturer protocol. Protein-A Dynabeads were previously incubated with clinical grade human-rituximab over-night at 4 C and washed 5× with PBS to remove any unbound rituximab before adding it to the cells. Sorted fractions were collected as well as the flow through for all sorting. Fractions were assessed for positive cells based on eGFP expression by flow cytometery with a blank channel to account for auto fluorescence from dead cells.
The efficiencies of the different tags (GST, RQR8 and His-tag) at purifying lentiviral particles from cellular media, was tested using the approach previously described for flankcedccstreptag (see Example 2), i.e. by sorting K562 cells expressing these tags on their surface. K562 cells were retrovirally transduced with flankedccstreptag, GST, RQR8 and H6 epitopes separately (FIG. 8, Pre-sorted column). Transduced cells represented a minority of the total population based on eGFP expression; therefore cells were not mixed with NT-K562 cells. Populations expressing flankedccstreptag at 10.5%, RQR8 at 9.75%, GST at 22.7% and H6 […] were thereafter sorted with Streptavidin Dynabeads, human rituximab previously incubated with protein-A bead, Glutathione magnetic beads and His-tag Dynabeads respectively.
Collected fractions were assessed for positive cells 12 days-post sorting. […] Moreover, K562 cells expressing GST epitope were successfully purified from pre-sorting population with 91% eGFP positive cells present in the sorted fraction. […] Conversely, K562 expressing H6 sorting was less successful as only 26.1% of cells in the sorted fraction were eGFP positive while 71.1% of cells were eGFP negative. Additionally, 59.2% eGFP positive cells were in the flow-through. The GST and RQR8 tags therefore show the best activity with regard to purifying viral particles from cellular supernatant in the same manner as flankcedccstreptag epitope.

Streptavidin [3] = target: T1, Streptavidin; conditions: biotin mimicking peptide binding streptavidin; read-out: affinity; cited from earlier work
K562 cells [4] = assay: Sorting of K562 cells expressing Flankedccstreptag formats with streptavidin beads; type: cell-based
Method: Transduced K562 were close to 100% positive for the transgenes after transduction. Positive cells were mixed with non-transduced (NT) K562 pre-sorting. The mixture was incubated with both streptavidin dynabeads (Life technologies, Cat. No. 65601) and streptavidin-microbeads (Miltenyi, Cat. No. 130-048-101) as per manufacturer protocol. The sorted cellular fraction was collected as well as flow-through fraction for both protocols. Sorting was assessed by streptavidin-APC staining and for eGFP positive cell populations 9 days post sorting by flow cytometry.
To establish that the two versions of Flankedccstreptag are able to purify lentivirus from cellular supernatant, an initial experiment was carried out involving sorting of K562 cells expressing these tags on their surface using streptavidin beads. We reasoned that if the tags could attach to a streptavidin matrix while expressed on cells with sufficient stability to allow sorting of expressing cells, they should be suitable for lentiviral capture too.
K562 cells were retrovirally transduced to express the two tags and transduction efficiencies were determined by eGFP expression using flow cytometry (FIG. 4 Transduced K562 plot). Subsequently, transduced cells were mixed with non-transduced K562 to assess the efficiency of sorting using two streptavidin-beads sourced from Life technologies (Dynabeads) and Miltenyi (Microbeads). […]

T1 sequence (P22629 25-183): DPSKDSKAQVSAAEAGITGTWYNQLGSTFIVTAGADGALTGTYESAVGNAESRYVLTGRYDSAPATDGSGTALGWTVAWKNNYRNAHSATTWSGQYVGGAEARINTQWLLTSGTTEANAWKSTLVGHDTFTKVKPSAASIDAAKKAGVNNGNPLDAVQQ

Flankedccstreptag: biotin mimic tag AECHPQGPPCIEGRK (SEQ ID NO: 2) expressed at the cell surface as tagging protein (Biotin mimicking peptide, flankedccstreptag)
transduction efficiency, neat supernatant (NT-293T cells): high transduction efficiencies
binding to Streptavidin-APC (Streptavidin [1]; tag on CD8 stalk): successfully bound
binding to Streptavidin-APC (Streptavidin [1]; tag on GPI anchor, two open reading frames (x2)): higher binding efficiency than StreptagII and ccstreptag
eGFP positive cells in the flow-through fraction (K562 cells [2]): absence of eGFP positive cells
eGFP positive cells in the sorted fraction (K562 cells [2]): 93.6%
eGFP positive cells, pre-sorted population (K562 cells [2]): 10.5%

RQR8: tag with rituximab-binding and Qbend10 epitopes on CD8 stalk, SEQ ID NO: 21
transduction efficiency, neat supernatant (NT-293T cells): high transduction efficiencies
eGFP positive cells in the flow-through fraction (K562 cells [2]): absence of eGFP positive cells
eGFP positive cells in the sorted fraction (K562 cells [2]): 89.4%
eGFP positive cells, pre-sorted population (K562 cells [2]): 9.75%

biotin mimicking peptide DVEAWLDERVPLVET (SEQ ID NO: 35) (Biotin mimicking peptide, long nanotag)
Kd (Streptavidin [3]): 3.6 nM
binding to Streptavidin-APC (Streptavidin [1]; tag on CD8 stalk): did not exhibit any binding

biotin mimicking peptide DVEAWLGAR (SEQ ID NO: 36) (Biotin mimicking peptide, short nanotag)
Kd (Streptavidin [3]): 17 nM
binding to Streptavidin-APC (Streptavidin [1]; tag on CD8 stalk): did not exhibit any binding

biotin mimicking peptide WSHPQFEK (SEQ ID NO: 1) [streptagll]
Kd (Streptavidin [3]): 72000 nM
binding to Streptavidin-APC (Streptavidin [1]; tag on CD8 stalk): successfully bound

disulphide constrained biotin mimicking peptide CHPQGPPC (SEQ ID NO: 3) [ccstreptag]
Kd (Streptavidin [3]): 230 nM
binding to Streptavidin-APC (Streptavidin [1]; tag on CD8 stalk): successfully bound

flankedccstreptag-d8-x2-GPI: two Flankedccstreptag copies separated by CD8-based linker (SEQ ID NO: 5) on a GPI anchor (ECHPQGPPCIEGRKSSGGGGSPAPRPPTPAPTIASECHPQGPPCIEGRKS; cysteine pairing not given here; also: on a GPI anchor, small tags and cut ends left off)
sorting of tag-expressing K562 cells from mixture with NT K562 (K562 cells [4]; streptavidin microbeads (Miltenyi)): successful
sorting of tag-expressing K562 cells from mixture with NT K562 (K562 cells [4]; streptavidin-dynabeads (Life technologies), eGFP): successfully sorted

From patent US10745715B2, “Method and means for purifying retroviral vectors” (UCL BUSINESS PLC, priority 2014, dated 2020)
